Data from US6441206B1, “Use of organic acid esters in dietary fat” (Raisio Benecol Ltd., priority 1997, dated 2002).

Columns and labels:
blood cholesterol = conditions: in vivo; cited from earlier work
[1] = soluble matter in spirit vinegar (10 weight-% acetic acid); assay type: physicochemical; conditions: spirit vinegar with 10 weight-% acetic acid; 12 hours standing without stirring
Excerpt: 6.80 g β-sitosterol citrate from example 12 90.7 g Rajamäki Spirit Vinegar (Primalco Oy, Nurmijärvi), containing 10 weight-% acetic acid.

[2] = system: triglyceride content of liver; conditions: cited from earlier work
cholesterol absorption [3] = conditions: infusion test; cited from earlier work
[4] = thermal resistance of light spread at 45° C.; assay type: physicochemical; conditions: fat component with 5% ester, 45° C. up to 4 hours, mixed after return to room temperature
Protocol: The polarity of the sterol/stanol esters described above is an extremely useful property. It is characteristic of compounds according to the invention, e.g. β-sitosterol dicarboxylic acid hemiesters and citrates that in lipid solutions (e.g. 2.5-5% of the fat component) they promote the mixing of the lipid and the water. […] The prepared light spread also lasted better than the comparative sample when heated to 45° C. for up to 4 hours. By improved thermal resistance is meant that after 2 hours at 45° C., more oil had separated from the comparative sample than from the sterol-containing sample. Over the next 2 hours, the separation of oil from the comparative sample continued. In the sterol-containing spread, however, negative change had ceased.

cholesterol absorption [5] = conditions: cited from earlier work; for cholesterol absorption lowering effect: molar quantities of the fatty acid esters
total serum cholesterol = conditions: daily supply of plant sterol 2-3 g; cited from earlier work
[6] = solubility in alcohol (ethanol) and lipids; assay type: physicochemical
Excerpt: According to one preferred embodiment of the invention, β-sitosterols are esterified and sterol esters are hydrogenated to form stanols. […] This achieves the significant advantage that hydrogenation can be carried out at room temperature.
Di-β-sitosteryl citrate is formed in a heterogeneous reaction between citric acid and β-sitosterol, at the same reaction conditions as described in the previous section. The compound is separated from the sterol monocitrate on the basis of solubility, using ethanol extraction. The method is based on the fact that the solubility of sterol monocitrate in ethyl alcohol is ten times that of di-β-sitosteryl citrate.
A minimum of 7 ml of water was azeotropically distilled from the reaction mixture over 7-8 hours; as the conversion approached theoretical, upon cooling no lactic acid or plant sterols were crystallized from the reaction mixture. The cooled reaction mixture was a yellowish, viscose liquid. The toluene was removed from the reaction mixture in a vacuum (29 mmHg) at a temperature of 80-90° C. […] As a whole, the material obtained was useable and contained very little or no free plant sterols and/or lactic acid.

[7] = system: triglyceride content of the blood serum; conditions: rats; cited from earlier work
white male mice = conditions: 3.5 g dose per 1 kg live weight; cited from earlier work

soy sterol-2-carbamate glutaric acid K^+—salt
lowering blood cholesterol concentrations (blood cholesterol): proved to lower blood cholesterol concentrations

β-sitosterol citrate [Example 12]
amount of the sterol citrate dissolved [1]: 0.74%

CC[C@H](CC[C@@H](C)[C@H]1CC[C@H]2[C@@H]3CC=C4C[C@@H](O)CC[C@]4(C)[C@H]3CC[C@]12C)C(C)C [β-sitosterol]
response in this test ([2]; source material as comparison, which test is meant is not clear): did not give a positive response | inhibition of cholesterol absorption (cholesterol absorption [3]): 50%

CCC(CCC(C)C1CCC2C3CC=C4CC(OC(=O)CCC(=O)O)CCC4(C)C3CCC12C)C(C)C (stereo not drawn) [Example 3, β-sitosterol Hydrogen Succinate]
changes in the sample after heating [4]: almost reversible | lowering of the cholesterol content of blood (cholesterol absorption [5]; compared with phytosterol monocarboxyl acid esters): as effectively as the phytosterol monocarboxyl acid esters

CC[C@H](CC[C@@H](C)[C@H]1CC[C@H]2[C@@H]3CC[C@H]4C[C@@H](O)CC[C@]4(C)[C@H]3CC[C@]12C)C(C)C [sitostanol]
total serum cholesterol (total serum cholesterol): decrease in the total serum cholesterol

decanoate
cholesterol absorption lowering effect (cholesterol absorption [5]): equally as effective

CC[C@H](CC[C@@H](C)[C@H]1CC[C@H]2[C@@H]3CC=C4C[C@@H](OC(=O)C(C)O)CC[C@]4(C)[C@H]3CC[C@]12C)C(C)C (stereo partly drawn) [Example 19, β-sitosterol Lactate]
solubility in alcohol ([6]; in words): highly soluble in alcohol | solubility in lipids and ethanol ([6]; reaction product, viscose liquid at 60-100° C.): soluble in lipids and ethanol

CC[C@H](CC[C@@H](C)[C@H]1CC[C@H]2[C@@H]3C[C@@H](OC=O)[C@@]4(O)C[C@@H](OC=O)CC[C@]4(C)[C@H]3CC[C@]12C)C(C)C [sitostane-3β-, 5α-, 6β-triol-3,6-diformiate]
lowering of triglyceride content of liver ([2]; guinea pigs): 54% | lowering of triglyceride content of the blood serum [7]: moderately lower | acute toxicity (white male mice): did not show toxicity

CC[C@H](CC[C@@H](C)[C@H]1CC[C@H]2[C@@H]3CC[C@H]4C[C@@H](O)CC[C@]4(C)[C@H]3CC[C@]12C)C(C)C [β-sitostanol]
inhibition of cholesterol absorption (cholesterol absorption [3]): 83%

oleate
cholesterol absorption lowering effect (cholesterol absorption [5]): equally as effective

CC(=O)O [acetate]
cholesterol absorption lowering effect (cholesterol absorption [5]): equally as effective
